Data reported in patent publication US20230218632A1, “CYCLIC SULFONAMIDE DERIVATIVES AS TRAP1 MODULATORS AND USES THEREOF” (Amathus Therapeutics, Inc., priority 2020, published 2023).

Target: T1, nanoLuc TRAP1 (Homo sapiens, UniProt Q12931)
T1 construct: expressed in transfected cells; host or cells: SH-SY5Y cells, transient transfection with FuGENE HD
T1 sequence (Q12931 60-704): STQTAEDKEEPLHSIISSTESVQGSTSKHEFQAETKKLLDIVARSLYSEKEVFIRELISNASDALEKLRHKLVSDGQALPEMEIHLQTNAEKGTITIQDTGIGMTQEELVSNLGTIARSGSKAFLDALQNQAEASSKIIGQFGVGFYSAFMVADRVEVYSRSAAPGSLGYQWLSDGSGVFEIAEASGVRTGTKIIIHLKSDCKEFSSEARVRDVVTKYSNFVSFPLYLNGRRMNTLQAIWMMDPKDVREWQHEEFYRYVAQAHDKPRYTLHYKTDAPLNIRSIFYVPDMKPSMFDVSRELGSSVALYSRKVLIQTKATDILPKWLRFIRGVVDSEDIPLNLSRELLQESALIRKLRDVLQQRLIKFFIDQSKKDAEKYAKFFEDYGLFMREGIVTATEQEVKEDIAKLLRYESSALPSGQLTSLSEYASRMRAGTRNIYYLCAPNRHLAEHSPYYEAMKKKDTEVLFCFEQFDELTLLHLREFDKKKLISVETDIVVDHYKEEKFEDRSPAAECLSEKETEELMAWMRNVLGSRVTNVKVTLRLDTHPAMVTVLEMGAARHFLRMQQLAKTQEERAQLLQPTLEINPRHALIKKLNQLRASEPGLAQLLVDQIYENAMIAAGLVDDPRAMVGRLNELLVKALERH
Test: NanoBRET in-cell target engagement assay
Type: binding
Settings: probe-385, 1 µM; live SHSY5Y cells; FIG. 2
Procedure: In-cell target engagement assays were performed as described in Robers M.B. et al. (2019) Quantitative, Real-Time Measurements of Intracellular Target Engagement Using Energy Transfer. In: Ziegler S., Waldmann H. (eds) Systems Chemical Biology. Methods in Molecular Biology, vol 1888. Humana Press, New York, NY; Machleidt et al., ACS Chem. Biol. 2015, 10, 8, 1797-1804; or Vasta et al., Cell Chemical Biology 25, 206-214, Feb. 15, 2018; or as described herein.
Below is a protocol for transient transfection of SHSY5Y cells with NanoLuc® fusions. • 1. Cultivate SHSY5Y cells appropriately prior to assay in MEM w NEAA supplemented with 10% FBS. • 2. Remove medium from cell flask via aspiration, trypsinize, and allow cells to dissociate from the flask. • 3. Neutralize trypsin using growth medium and pellet cells via centrifugation at 200 g for 5 minutes. • 4. Aspirate medium and re-suspend cells into a single cell suspension using complete cell culture medium. • 5. Adjust the cell density to 300 K/mL in cell culture medium in a sterile, conical tube. • 6. Prepare lipid:DNA complexes as follows (this covers two assay plates, adjust numbers for more plates) • a. Prepare a 10 µg/mL solution of DNA in Opti-MEM without serum. This solution should contain the following ratios of carrier DNA and DNA encoding NanoLuc® fusion. • i. 5.0 µg/mL of Transfection Carrier DNA (pGEM) • ii. […]

Compound: O=C(Nc1ccc2c(c1)S(=O)(=O)N(c1ccc(Br)cc1)CCO2)c1cnc(-c2ccccc2)[nH]1 [Compound 1331, N-(2-(4-bromophenyl)-1,1-dioxido-3,4-dihydro-2H-benzo[b][1,4,5]oxathiazepin-8-yl)-2-phenyl-1H-imidazole-5-carboxamide]
- displacement of nanoBRET tracer: displacing the nanoBRET tracer molecule
